Measurements: the NIST ThermoML archive (doi:10.1016/j.jct.2014.12.022)
Numbers after ± are expanded uncertainties.

Key:
[1] = 101.33 kPa, Liquid; for speed of sound: Sing-around technique in a fixed-path interferometer; for mass density: Vibrating tube method
[2] = molar heat capacity at constant pressure; details: 101.33 kPa, Liquid, Small sample (50 mg) DSC

speed of sound ([1]; 293.15 K) [m/s] | mass density ([1]; 293.15 K) [kg/m3] | speed of sound ([1]; 298.15 K) [m/s] | mass density ([1]; 298.15 K) [kg/m3] | speed of sound ([1]; 303.15 K) [m/s] | mass density ([1]; 303.15 K) [kg/m3] | molar heat capacity at constant pressure ([2]; 293.15 K) [J/K/mol] | molar heat capacity at constant pressure ([2]; 298.15 K) [J/K/mol] | molar heat capacity at constant pressure ([2]; 303.15 K) [J/K/mol] | Compound
1322.6 ± 1.5 | 878.89 ± 1 | 1299.4 ± 1.5 | 873.54 ± 1 | 1276.2 ± 1.5 | 868.2 ± 1 | 133.58 ± 2.7 | 135.28 ± 2.7 | 136.58 ± 2.7 | c1ccccc1 [benzene]
1565.6 ± 1.6 | 1033.3 ± 1 | 1546.1 ± 1.6 | 1028.3 ± 1 | 1527.3 ± 1.6 | 1023.5 ± 1 | 165.44 ± 3.3 | 166.22 ± 3.3 | 166.92 ± 3.3 | CN1CCCC1=O [N-methylpyrrolidone]
